Measured values reported in US20100267561A1, “HERBICIDAL PYRIDAZINONE DERIVATIVES” (priority 2007, published 2010).

Key:
Format in all cases: in vivo
[1] = test system: barnyardgrass (Echinochloa crus-galli); assay: Test A pre-/postemergence plant response
Summary of the method: (§1)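 Seeds in loam soil/sand blend treated preemergence by directed soil spray, with simultaneous postemergence spray on 2–10 cm plants at one- to two-leaf stage; compounds in non-phytotoxic solvent with surfactant. Injury visually rated versus untreated controls after about 10 days in greenhouse, 0 (no effect) to 100 (complete control).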

corn (Zea mays) = assay: Test A pre-/postemergence plant response
Summary of the method: as §1

[2] = test system: large crabgrass (Digitaria sanguinalis); assay: Test A pre-/postemergence plant response
Summary of the method: as §1

[3] = test system: morningglory (Ipomoea coccinea); assay: Test A pre-/postemergence plant response
Summary of the method: as §1

[4] = test system: pigweed (Amaranthus retroflexus); assay: Test A pre-/postemergence plant response
Summary of the method: as §1

[5] = test system: Italian ryegrass (Lolium multiflorum); assay: Test B pre-/postemergence plant response
Summary of the method: (§2)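 Preemergence and postemergence (plants 2-18 cm, 1- to 4-leaf stage) applications used test chemicals in a non-phytotoxic solvent with surfactant. Plants were held in a greenhouse 13 to 15 days, then rated visually against controls on a 0-100 scale (0 no effect, 100 complete control).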

[6] = test system: bermudagrass (Cynodon dactylon); assay: Test B pre-/postemergence plant response; conditions: for Bermudagrass plant response rating: 8 g ai/ha
Summary of the method: as §2

[7] = test system: johnsongrass (Sorghum halepense); assay: Test B pre-/postemergence plant response
Summary of the method: as §2

[8] = test system: canarygrass (Phalaris minor); assay: Test B postemergence plant response; conditions: for Canarygrass plant response rating: 8 g ai/ha, postemergence, 0-100 scale; for Plant response rating, Canarygrass: Postemergence
Summary of the method: (§3)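 Postemergence greenhouse test; plants at 2 to 18 cm (1- to 4-leaf stage) given formulated test chemical, held 13 to 15 days, then visually rated against untreated controls on a 0 (no effect) to 100 (complete control) scale; dash means no result.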

[9] = test system: chickweed (Stellaria media); assay: Test B postemergence plant response; conditions: for Chickweed plant response rating: 8 g ai/ha, postemergence, 0-100 scale; for Plant response rating, Chickweed: Postemergence
Summary of the method: as §3

[10] = test system: windgrass (Apera spica-venti); assay: Test B postemergence plant response; conditions: for Windgrass plant response rating: 8 g ai/ha, postemergence, 0-100 scale; for Plant response rating, Windgrass: Postemergence
Summary of the method: as §3

[11] = test system: winter barley (Hordeum vulgare); assay: Test B postemergence plant response; conditions: for Barley plant response rating: 8 g ai/ha, postemergence, 0-100 scale; for Plant response rating, Barley: Postemergence, scale 0 to 100, 0 no effect, 100 complete control
Summary of the method: as §3

[12] = Postemergence, 31 g ai/ha, 0 to 100 scale, 0 no effect, 100 complete control
[13] = Postemergence, 125 g ai/ha, 0 to 100 scale, 0 no effect, 100 complete control
[14] = Preemergence, 31 g ai/ha, 0 to 100 scale, 0 is no effect, 100 is complete control
[15] = Preemergence, 125 g ai/ha, 0 to 100 scale (0 no effect, 100 complete control)
[16] = 8 g ai/ha, postemergence, 0-100 scale
[17] = Postemergence, 16 g ai/ha, scale 0 to 100
[18] = Postemergence, 31 g ai/ha, scale 0 to 100
[19] = Postemergence, 62 g ai/ha, scale 0 to 100, 0 no effect, 100 complete control
[20] = Preemergence, 16 g ai/ha, scale 0 to 100 (0 no effect, 100 complete control)
[21] = Preemergence, 31 g ai/ha, scale 0 to 100 (0 no effect, 100 complete control)
[22] = Preemergence, 62 g ai/ha, scale 0 to 100
[23] = Preemergence, 8 g ai/ha, scale 0 to 100
[24] = Preemergence, scale 0 to 100 (0 no effect, 100 complete control)
[25] = Preemergence, 31 g ai/ha, 0 to 100 scale, 0 no effect, 100 complete control
[26] = 62 g ai/ha, scale 0 to 100, 0 no effect, 100 complete control
[27] = Preemergence, 16 g ai/ha, scale 0 to 100

Cn1ncc(O)c(-n2nc(-c3ccc(Cl)cc3)cc2C2CC2)c1=O [Compound 45]
Plant response rating, Barnyardgrass [1, 12]: 80 | Plant response rating, Barnyardgrass [1, 13]: 100 | Plant response rating, Barnyardgrass [1, 14]: 90 | Plant response rating, Barnyardgrass [1, 15]: 100 | Plant response rating, Corn (corn (Zea mays); [12]): 40 | Plant response rating, Corn (corn (Zea mays); [13]): 80 | Plant response rating, Corn (corn (Zea mays); [14]): 0 | Plant response rating, Corn (corn (Zea mays); [15]): 60 | Plant response rating, Crabgrass, Large [2, 12]: 40 | Plant response rating, Crabgrass, Large [2, 13]: 100 | Plant response rating, Crabgrass, Large [2, 14]: 30 | Plant response rating, Crabgrass, Large [2, 15]: 90 | Plant response rating, Morningglory [3, 12]: 0 | Plant response rating, Morningglory [3, 13]: 0 | Plant response rating, Morningglory [3, 14]: 0 | Plant response rating, Morningglory [3, 15]: 0 | Plant response rating, Pigweed [4, 12]: 0 | Plant response rating, Pigweed [4, 13]: 0 | Plant response rating, Pigweed [4, 14]: 0 | Plant response rating, Pigweed [4, 15]: 0 | Ryegrass, Italian plant response rating [5, 16]: 70 | Plant response rating, Ryegrass, Italian [5, 17]: 90 | Plant response rating, Ryegrass, Italian [5, 18]: 100 | Plant response rating, Ryegrass, Italian [5, 19]: 100 | Plant response rating, Ryegrass, Italian [5, 20]: 90 | Plant response rating, Ryegrass, Italian [5, 21]: 100 | Plant response rating, Ryegrass, Italian [5, 22]: 100 | Ryegrass, Italian plant response rating [5, 23]: 0 | Bermudagrass plant response rating ([6]; postemergence, 0-100 scale): 60 | Plant response rating, Bermudagrass [6, 17]: 95 | Plant response rating, Bermudagrass [6, 18]: 98 | Plant response rating, Bermudagrass [6, 19]: 98 | Bermudagrass plant response rating [6, 24]: 0 | Plant response rating, Bermudagrass [6, 20]: 0 | Plant response rating, Bermudagrass [6, 25]: 0 | Plant response rating, Bermudagrass [6, 22]: 0 | Johnsongrass plant response rating [7, 16]: 60 | Plant response rating, Johnsongrass [7, 17]: 65 | Plant response rating, Johnsongrass [7, 18]: 65 | Plant response rating, Johnsongrass [7, 19]: 70 | Plant response rating, Johnsongrass [7, 20]: 20 | Plant response rating, Johnsongrass [7, 25]: 75 | Plant response rating, Johnsongrass [7, 22]: 98 | Johnsongrass plant response rating [7, 23]: 15 | Canarygrass plant response rating [8]: 0 | Plant response rating, Canarygrass ([8]; 16 g ai/ha, scale 0 to 100): 0 | Plant response rating, Canarygrass ([8]; 31 g ai/ha, scale 0 to 100): 0 | Plant response rating, Canarygrass [8, 26]: 0 | Chickweed plant response rating [9]: 0 | Plant response rating, Chickweed ([9]; 16 g ai/ha, scale 0 to 100): 0 | Plant response rating, Chickweed ([9]; 31 g ai/ha, scale 0 to 100): 0 | Plant response rating, Chickweed [9, 26]: 0 | Windgrass plant response rating [10]: 30 | Plant response rating, Windgrass ([10]; 16 g ai/ha, scale 0 to 100): 35 | Plant response rating, Windgrass ([10]; 31 g ai/ha, scale 0 to 100): 60 | Plant response rating, Windgrass [10, 26]: 65 | Barley plant response rating [11]: 5 | Plant response rating, Barley ([11]; 16 g ai/ha): 5 | Plant response rating, Barley ([11]; 31 g ai/ha): 5 | Plant response rating, Barley ([11]; 62 g ai/ha): 5

Cc1cc(-c2ccc(Cl)cc2)nn1-c1c(OC(=O)c2cccs2)cnn(C)c1=O [Compound 52]
Plant response rating, Barnyardgrass [1, 12]: 80 | Plant response rating, Barnyardgrass [1, 13]: 100 | Plant response rating, Barnyardgrass [1, 14]: 70 | Plant response rating, Barnyardgrass [1, 15]: 100 | Plant response rating, Corn (corn (Zea mays); [12]): 30 | Plant response rating, Corn (corn (Zea mays); [13]): 100 | Plant response rating, Corn (corn (Zea mays); [14]): 0 | Plant response rating, Corn (corn (Zea mays); [15]): 70 | Plant response rating, Crabgrass, Large [2, 12]: 60 | Plant response rating, Crabgrass, Large [2, 13]: 90 | Plant response rating, Crabgrass, Large [2, 14]: 30 | Plant response rating, Crabgrass, Large [2, 15]: 100 | Plant response rating, Morningglory [3, 12]: 0 | Plant response rating, Morningglory [3, 13]: 0 | Plant response rating, Morningglory [3, 14]: 0 | Plant response rating, Morningglory [3, 15]: 20 | Plant response rating, Pigweed [4, 12]: 0 | Plant response rating, Pigweed [4, 13]: 0 | Plant response rating, Pigweed [4, 14]: 0 | Plant response rating, Pigweed [4, 15]: 0 | Ryegrass, Italian plant response rating [5, 16]: 70 | Plant response rating, Ryegrass, Italian [5, 17]: 80 | Plant response rating, Ryegrass, Italian [5, 18]: 95 | Plant response rating, Ryegrass, Italian [5, 19]: 100 | Plant response rating, Ryegrass, Italian [5, 21]: 95 | Plant response rating, Ryegrass, Italian [5, 22]: 100 | Ryegrass, Italian plant response rating [5, 23]: 0 | Ryegrass, Italian plant response rating [5, 27]: 95 | Bermudagrass plant response rating ([6]; postemergence, 0-100 scale): 40 | Plant response rating, Bermudagrass [6, 17]: 98 | Plant response rating, Bermudagrass [6, 18]: 100 | Plant response rating, Bermudagrass [6, 19]: 100 | Bermudagrass plant response rating [6, 24]: 0 | Plant response rating, Bermudagrass [6, 20]: 0 | Plant response rating, Bermudagrass [6, 25]: 0 | Plant response rating, Bermudagrass [6, 22]: 85 | Johnsongrass plant response rating [7, 16]: 75 | Plant response rating, Johnsongrass [7, 17]: 80 | Plant response rating, Johnsongrass [7, 18]: 90 | Plant response rating, Johnsongrass [7, 19]: 95 | Plant response rating, Johnsongrass [7, 25]: 80 | Plant response rating, Johnsongrass [7, 22]: 85 | Johnsongrass plant response rating [7, 23]: 55 | Johnsongrass plant response rating [7, 27]: 65 | Canarygrass plant response rating [8]: 0 | Plant response rating, Canarygrass ([8]; 16 g ai/ha, scale 0 to 100): 0 | Plant response rating, Canarygrass ([8]; 31 g ai/ha, scale 0 to 100): 0 | Plant response rating, Canarygrass [8, 26]: 5 | Chickweed plant response rating [9]: 0 | Plant response rating, Chickweed ([9]; 16 g ai/ha, scale 0 to 100): 0 | Plant response rating, Chickweed ([9]; 31 g ai/ha, scale 0 to 100): 0 | Plant response rating, Chickweed [9, 26]: 0 | Windgrass plant response rating [10]: 0 | Plant response rating, Windgrass ([10]; 16 g ai/ha, scale 0 to 100): 0 | Plant response rating, Windgrass ([10]; 31 g ai/ha, scale 0 to 100): 60 | Plant response rating, Windgrass [10, 26]: 80 | Barley plant response rating [11]: 0 | Plant response rating, Barley ([11]; 16 g ai/ha): 0 | Plant response rating, Barley ([11]; 31 g ai/ha): 0 | Plant response rating, Barley ([11]; 62 g ai/ha): 0
